One data set deals with alkaline phosphatase. The note with it: for Activity alkaline phosphatase after freeze-drying and 6 days at 0% RH and 60° C.: alkaline phosphatase to stabilizer 1 to 9, average of 4 independent experiments; for Activity alkaline phosphatase directly after freeze drying: alkaline phosphatase to stabilizer 1 to 9 by weight, average of 2 independent experiments.
Data set [1] can be described thus: Storage of sugar glasses at 20° C. at raised relative air humidity (deliquescence). It counts as physicochemical. As to conditions: 45% relative air humidity. From the text: In practice, a sugar glass will never be completely anhydrous. This is for instance the consequence of uptake of water from the air. […] The extent of water uptake depends on the hygroscopicity of the material and of the relative degree of air humidity.

Data set [2] in a line: Freeze-drying at a sample temperature of −16° C. (cake formation). It counts as physicochemical. As to conditions: sample temperature −16° C. The method, then:
This last was tested in experiments with trehalose and inulin. Freeze-drying was done at a sample temperature of −16° C. […] Accordingly, inulin can be freeze-dried under less stringent conditions.

For data set [3] the following is noted: from scientific publications; cited from earlier work.

Method for alkaline phosphatase: Alkaline phosphatase with and without stabilizer was dissolved in a 0.05 M 2-amino-2-methyl-1,3-propanediol solution in water, pH 9.8. The concentration of alkaline phosphatase was 2.5 mg/mL in all cases. […] Trehalose and glucose were used as positive and negative control, respectively. The weight ratio of alkaline phosphatase to stabilizer was 1 to 9 in all cases. Of the solutions, 2 mL were transferred to glass sample vessels of a diameter of about 2 cm. The sample vessels were transferred to liquid nitrogen. After the solution had frozen completely, the sample vessels were transferred to a Christ freeze-drier, model Alpha 2-4, at a plate temperature of −30° C., followed by freeze-drying at a condenser temperature of −53° C. and a pressure of 0.220 mbar for 18 hours. Then, during 6 hours, the plate temperature and the pressure were gradually raised to 20° C. and 0.520 mbar, respectively. Thereafter the freeze-drying process was continued for 20 more hours.
Two series of experiments were carried out. In the first series, the samples were left to stand for 6 days at 0% relative humidity (RH) and 60° C., whereafter the activity of the protein was determined. In the second series of experiments, the samples were left to stand in an exsiccator above silica gel (0% RH) or in controlled-climate cabinets (45% and 60% RH) at 20° C. At different times, the activity of the protein was determined.
The activity of alkaline phosphatase was determined as follows. The freeze-dried samples were reconstituted with water. To 50 μl of the solution obtained, there were added 905 μL of a 0.05 M 2-amino-2-methyl-1,3-propanediol solution in water, pH 9.8, and 20 μL of a 100 mM MgCl2 solution in water. Next, 50 μL of a freshly prepared solution of 10 mg phosphatase substrate (para-nitrophenyl phosphate) per mL water were added. The mixture was vortexed and then incubated at 37° C. After 30 minutes, the reaction was stopped by addition of 5.0 mL of a 0.1 N solution of NaOH in water. The extinction of the solution obtained was measured at 405 nm. A calibration line was made using freshly prepared solutions of alkaline phosphatase in 0.05 M 2-amino-2-methyl-1,3-propanediol in water, pH 9.8, of known concentrations.

On to `O=C[C@H](O)[C@@H](O)[C@H](O)[C@H](O)CO` [Glucose], for which, in the data set on alkaline phosphatase, the “Activity alkaline phosphatase after freeze-drying and 6 days at 0% RH and 60° C.” value worked out at 0.8 ± 4.5%; the “Activity alkaline phosphatase directly after freeze drying” value was determined as 110.3 ± 10.6%. Moreover, the “Activity of the protein after 4 weeks at 45% RH (in words)” value in the data set with alkaline phosphatase (freeze-dried samples, 4 weeks, 45% RH, 20° C.) is on record as “substantial decrease of the activity”. The “Activity of alkaline phosphatase after 4 weeks at 45% RH” value with alkaline phosphatase (freeze-dried samples, 4 weeks, 45% RH, 20° C., FIG. II) is recorded as 57.9±3.1%. In addition, the “Activity of the protein after 4 weeks at 60% RH (in words)” value with alkaline phosphatase (freeze-dried samples, 4 weeks, 60% RH, 20° C.) is given as “substantial decrease of the activity”. In the data set on alkaline phosphatase (freeze-dried samples, 4 weeks, 60% RH, 20° C., FIG. III), the “Activity of alkaline phosphatase after four weeks at 60% RH” value came to 46.3±16.1%. In addition, in the data set with alkaline phosphatase (freeze-dried samples), the “Activity of the protein after 6 days of storage at 0% RH and 60° C. (in words)” value is reported as “gone completely”.
On to `OC[C@H]1O[C@H](O[C@H]2O[C@H](CO)[C@@H](O)[C@H](O)[C@H]2O)[C@H](O)[C@@H](O)[C@@H]1O` [Trehalose], for which, in the data set with alkaline phosphatase, the “Activity alkaline phosphatase after freeze-drying and 6 days at 0% RH and 60° C.” value is given as −1.4 ± 2.8%; the “Activity alkaline phosphatase directly after freeze drying” value turned out to be 95.9 ± 11.5%. Besides, the “Activity of the protein after 6 days of storage at 0% RH and 60° C. (in words)” value in the data set on alkaline phosphatase (freeze-dried samples) is “gone completely”. Also, the “Behaviour of glass exposed to relative air humidity of 45%” value in data set [1] was “first deliquesced (that is, the Tg falls below 20° C.) and then crystallized”. The “Cake obtained on freeze-drying” value in data set [2] is reported as “collapsed cake”. Moreover, in data set [3], the “Tg (glass transition temperature)” value was roughly 120 °C.

The values above are taken from patent US6841169B2, “Stabilizer for pharmacons” (Rijksuniversiteit Groningen, priority 2001, dated 2005).
